Assay results as given in US7981939B2, “Application of 2-bromide-isovanillin for the manufacture of a medicament for anti-cancer or/and radiation/chemotherapy sensitization” (Institute of Radiation Medicine, Academy of Military …, priority 2005, dated 2011).

Columns and labels:
[1] = tested on: human cervical cancer cell line HeLa; assay: MTT assay, proliferation of HeLa cells; assay type: cell-based; details: for effect on the proliferation of HeLa cells: concentrations of less than 40 μmol/L, up to 72 hrs
Method: Human cervical cancer cell line HeLa, human liver cancer cell line HepG2/7221/7402, human ovarian cancer cell line HOC8/A2780, human glioma cell line BT325, lung cancer cell line A549, brain metastatic lung cancer cell line BT72 and normal human hepatic cell line LO2 were all grown in DMEM liquid medium supplemented with 10% newborn calf serum. Human leukemia cell line Jurkat was grown in 1640 medium supplemented with 10% newborn calf serum. The above cell lines were cultured in a CO2 incubator at 5% CO2 at 37° C.
By way of example, human cervical cancer cell line HeLa was used to study the effect of vanillin on the proliferation of cancer cells by MTT assay. Specifically, human cervical cancer cells HeLa were seeded into a 96-well plate at a density of 5×10^3 cells/well, and were divided into four groups. To each of the groups vanillin was added at a concentration of 0, 100, 250 or 500 μmol/L, respectively, and was allowed to grow for 4 days. Using the MTT assay, the optical density (OD) values at 490 nm were measured and recorded every day, wherein the OD value is indicative of the number of cells, i.e., the proliferation of cells.
By way of example, human cervical cancer cell line HeLa was used to study the effect of several vanillin derivatives for 72 hrs on the proliferation of cancer cells by MTT assay. Specifically, human cervical cancer cells HeLa were seeded into a 96-well plate at a density of 5×10^3 cells/well, and were divided into four groups. To each of the groups were added increasing concentrations (0, 10, 20, 30, 40 μmol/L) of vanillin derivatives ethyl vanillin (Code No. VAND3206), 4-methoxy vanillin (Code No. VAND3207), isovanillin (Code No. VAND3209) and 2-bromo-isovanillin (Code No. VAND3208), and the cells were cultured for 72 hrs. Using the MTT assay, the optical density (OD) values at 490 nm were measured and recorded every day, wherein the OD value is indicative of the number of cells, i.e., the proliferation of cells.
By way of example, human cervical cancer cell line HeLa was used to study the inhibitory effect of 2-bromo-isovanillin at different concentrations for different periods of time on the proliferation of cancer cells by MTT assay. Specifically, human cervical cancer cells HeLa were seeded into a 96-well plate at a density of 5×10^3 cells/well, and were divided into […]. To each of the groups 2-bromo-isovanillin was added at a concentration of 0, 10, 20, 30, 40 or 50 μmol/L, and was cultured for 14 days, respectively. Using the MTT assay, the optical density (OD) values at 490 nm were measured and recorded every day, wherein the OD value is indicative of the number of cells, i.e., the proliferation of cells.

[2] = target: T1, nuclear protein DNA-PKcs serine/threonine protein kinase (Homo sapiens, UniProt P78527); assay: DNA-PKcs kinase activity in nuclear protein of treated HepG2 cells; assay type: cell-based; details: HepG2, 100 μmol/L, 24 hrs
T1 construct: adding nuclear proteins to the solid phase reaction system; endogenous in cells; host or cells: HepG2 human liver cancer cells (nuclear protein extract)
Method: The activity of nuclear protein DNA-PKcs serine/threonine protein kinase in human liver cancer cells HepG2 treated with 0, 10, 20, 40, 100 μmol/L 2-bromo-isovanillin for 24 hrs was determined by using […] DNA dependent protein kinase assay kit (Promega), according to the manufacturer's instructions, and the treatment with 100 μmol/L vanillin for the same period of time served as control. Basically, the assay was carried out by immobilizing the phosphorylation substrate specific to DNA-PKcs, i.e., a peptide derived from p53 protein onto a cellulose membrane, adding nuclear proteins to the solid phase reaction system, isotopically labeling the substrate by phosphorylation using γ-^32P ATP, removing non-specific signals after the isotope labeling, and visualizing the kinase activity upon X-ray film developing.

inhibitory effect on DNA-PKcs kinase activity compared with 2-bromo-isovanillin [2] | SMILES | effect on the proliferation of HeLa cells [1] | concentration at which proliferation of cancer cells was effectively inhibited ([1]; HeLa, 0-500 μmol/L, 4 days, OD at 490 nm)
 | CCOc1cc(C=O)ccc1O [ethyl vanillin] | no inhibitory effect | 
significantly weaker | COc1cc(C=O)ccc1O [vanillin] |  | above 250 μmol/L
 | COc1ccc(C=O)cc1O [VAND3209, isovanillin] | no inhibitory effect | 
